This note sets out measurements from BindingDB's records for patent US9328118 (Astellas Pharma Inc, 2016).

The target of this assay is Cathepsin S (Homo sapiens, UniProt P25774). As to the kind of experiment: Inhibition Assay. The protocol: 5 μL of a human cathepsin S enzyme (R&D1183-CY-010) was added to a 96-well plate so as to be 20 ng/well.
Cathepsin S, sequence (P25774 whole entry): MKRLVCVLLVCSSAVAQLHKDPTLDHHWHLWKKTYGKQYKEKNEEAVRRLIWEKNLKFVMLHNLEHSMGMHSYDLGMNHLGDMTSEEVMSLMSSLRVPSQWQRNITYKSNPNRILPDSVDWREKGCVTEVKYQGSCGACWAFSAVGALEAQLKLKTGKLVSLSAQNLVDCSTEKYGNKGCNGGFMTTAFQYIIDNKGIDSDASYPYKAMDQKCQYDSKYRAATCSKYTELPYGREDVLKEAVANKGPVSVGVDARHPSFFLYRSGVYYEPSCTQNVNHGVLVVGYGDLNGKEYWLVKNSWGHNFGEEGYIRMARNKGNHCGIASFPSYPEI

As to `CN(C)C(=O)CN1CCC(CCOc2ccc(-c3nc(C#N)nc4c3ncn4C)cc2C(F)(F)F)CC1` [US9328118, 72], the IC50 (in general, the midpoint of a concentration-inhibition curve) was determined as 1.6 nM.
